Here are results for 35 molecules from US20250034147A1, “MDM2 DEGRADERS AND USES THEREOF” (Kymera Therapeutics, Inc., priority 2021, published 2025).

A value given as a limit tells only on which side of the number the result lay.

T1 sequence (Q00987 whole entry): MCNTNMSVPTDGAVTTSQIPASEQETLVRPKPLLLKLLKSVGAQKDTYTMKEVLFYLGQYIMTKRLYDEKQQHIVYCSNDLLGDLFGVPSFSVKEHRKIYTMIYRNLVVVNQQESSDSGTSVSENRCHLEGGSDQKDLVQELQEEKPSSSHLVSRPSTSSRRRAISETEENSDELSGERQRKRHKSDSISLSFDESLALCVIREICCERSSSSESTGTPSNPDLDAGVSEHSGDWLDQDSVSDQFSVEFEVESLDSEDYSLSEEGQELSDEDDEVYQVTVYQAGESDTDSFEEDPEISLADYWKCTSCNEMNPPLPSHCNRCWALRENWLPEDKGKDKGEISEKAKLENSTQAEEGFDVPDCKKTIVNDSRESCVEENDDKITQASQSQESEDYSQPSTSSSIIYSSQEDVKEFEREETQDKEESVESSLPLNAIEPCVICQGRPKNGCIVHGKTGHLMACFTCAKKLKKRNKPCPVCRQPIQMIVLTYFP

This assay concerns the target T1, HiBiT-tagged MDM2 (Homo sapiens, UniProt Q00987).
T1 construct: expressed in transfected cells
Kind of assay: MDM2 HiBit HEK293T degradation. It is filed as cell-based. As to conditions: HEK293T cells stably expressing C-terminally HiBiT-tagged MDM2; 4 h; read-out: MDM2 HiBit HEK293T degradation 4 h: Average external-Abs DC50. The method, then:
HEK293T cells were grown overnight to 70-80% confluency in a 6-well plate in complete media (DMEM 10% FBS) in a 37° C. incubator with 5% CO2. Cells were transfected with 1 micrograms of C- or N-terminally HiBiT-tagged MDM2 constructs using Fugene 6 transfection reagent (Promega) as per manufacturer protocol. After overnight incubation at 37° C., growth media within the wells was replaced with selection media (DMEM+10% FBS+1 microgram/ml final concentration of Puromycin). Puromycin (selection antibiotic) concentrations required for complete cell kill were determined previously. Cells were monitored for the next 48h-96h to select for positively transfected cells. Surviving colonies were pooled and expanded in selection media. Expanded pools of HEK293T cells stably expressing C- and N-terminally HiBiT-tagged MDM2, were characterized using a MDM2 tool degrader and HaloPROTAC3 as positive control. HEK293T cells expressing C-terminally HiBiT-tagged MDM2 were subsequently used for assessment of degradation potencies for MDM2 degraders.
The letter codes for MDM2 degradation potency (DC50) include: A (<10 nM), B […], C (>100-1000 nM), and D (>1000 nM).
`C[C@H]1CN(C(=O)[C@H]2CC[C@H](NC(=O)[C@@H]3NC4(CCCCC4)[C@@]4(C(=O)Nc5cc(Cl)ccc54)[C@H]3c3cccc(Cl)c3F)CC2)CCN1CCc1ccc2c(c1)n(C)c(=O)n2C1CCC(=O)NC1=O` (some centres unmarked) [I-121]: the DC50 (as a rule, the midpoint of the concentration-degradation curve) is below 10 nM.

Regarding `C[C@@H]1CN(C(=O)[C@H]2CC[C@H](NC(=O)[C@@H]3NC4(CCCCC4)[C@@]4(C(=O)Nc5cc(Cl)ccc54)[C@H]3c3cccc(Cl)c3F)CC2)CCN1CCc1ccc2c(c1)n(C)c(=O)n2C1CCC(=O)NC1=O` (some centres unmarked) [I-122], the DC50 is below 10 nM.

For `Cn1c(=O)n(C2CCC(=O)NC2=O)c2ccc(C3CC4(C3)CN(C[C@H]3CC[C@H](NC(=O)[C@@H]5NC6(CCCCC6)[C@@]6(C(=O)Nc7cc(Cl)ccc76)[C@H]5c5cccc(Cl)c5F)CC3)C4)cc21` (some centres unmarked) [I-123], the DC50 is below 10 nM.

As for `Cn1c(=O)n(C2CCC(=O)NC2=O)c2ccc(N3CCN(C(=O)CN4CCC(NC(=O)[C@@H]5NC6(CCCCC6)[C@@]6(C(=O)Nc7cc(Cl)ccc76)[C@H]5c5cccc(Cl)c5F)CC4)CC3)cc21` (some centres unmarked) [I-125], the DC50 is below 10 nM.

Take `CN(C(=O)[C@H]1CC[C@H](NC(=O)[C@@H]2NC3(CCCCC3)[C@@]3(C(=O)Nc4cc(Cl)ccc43)[C@H]2c2cccc(Cl)c2F)CC1)C1CCN(Cc2ccc3c(c2)n(C)c(=O)n3C2CCC(=O)NC2=O)CC1` (some centres unmarked) [I-127]: the DC50 is below 10 nM.

Take `Cn1c(=O)n(C2CCC(=O)NC2=O)c2ccc([C@H]3CC[C@H](CN4CCC(NC(=O)[C@@H]5NC6(CCCCC6)[C@@]6(C(=O)Nc7cc(Cl)ccc76)[C@H]5c5cccc(Cl)c5F)CC4)CC3)cc21` (some centres unmarked) [I-130]: the DC50 is below 10 nM.

Turning to `Cn1c(=O)n(C2CCC(=O)NC2=O)c2ccc(CC3(C(=O)O)CCN(C(=O)[C@H]4CC[C@H](NC(=O)[C@@H]5NC6(CCCCC6)[C@@]6(C(=O)Nc7cc(Cl)ccc76)[C@H]5c5cccc(Cl)c5F)CC4)CC3)cc21` (some centres unmarked) [I-131], the DC50 lay within 100 to 1000 nM.

For the molecule `Cn1c(=O)n(C2CCC(=O)NC2=O)c2ccc(CCCC3(CC(=O)O)CCN(C(=O)[C@H]4CC[C@H](NC(=O)[C@@H]5NC6(CCCCC6)[C@@]6(C(=O)Nc7cc(Cl)ccc76)[C@H]5c5cccc(Cl)c5F)CC4)CC3)cc21` (some centres unmarked) [I-132], the DC50 lay in the range of 100 to 1000 nM.

As for `Cn1c(=O)n(C2CCC(=O)NC2=O)c2ccc(CCCN3CCN(C(=O)[C@@H]4CC[C@@H](NC(=O)[C@@H]5NC6(CCCCC6)[C@@]6(C(=O)Nc7cc(Cl)ccc76)[C@H]5c5cccc(Cl)c5F)CO4)CC3)cc21` (some centres unmarked) [I-133], the DC50 was below 10 nM.

As to `Cn1c(=O)n(C2CCC(=O)NC2=O)c2ccc(CCC(=O)N3CCN(C[C@H]4CC[C@H](NC(=O)[C@@H]5NC6(CCCCC6)[C@@]6(C(=O)Nc7cc(Cl)ccc76)[C@H]5c5cccc(Cl)c5F)CC4)CC3)cc21` (some centres unmarked) [I-134], the DC50 was below 10 nM.

On to `Cn1c(=O)n(C2CCC(=O)NC2=O)c2ccc(CN3CCN(C(=O)[C@H]4CC[C@H](NC(=O)[C@@H]5NC6(CCCCC6)[C@@]6(C(=O)Nc7cc(Cl)ccc76)[C@H]5c5cccc(Cl)c5F)CC4)C(C(=O)O)C3)cc21` (some centres unmarked) [I-135], for which the DC50 lay in the range of 100 to 1000 nM.

For the molecule `Cn1c(=O)n(C2CCC(=O)NC2=O)c2ccc(CCCO[C@@H]3C[C@@H](C(=O)O)N(C(=O)[C@H]4CC[C@H](NC(=O)[C@@H]5NC6(CCCCC6)[C@@]6(C(=O)Nc7cc(Cl)ccc76)[C@H]5c5cccc(Cl)c5F)CC4)C3)cc21` (some centres unmarked) [I-136], the DC50 fell in the range of 10 to 100 nM.

In the case of `Cn1c(=O)n(C2CCC(=O)NC2=O)c2ccc([C@H]3CC[C@H](N4CCC(NC(=O)[C@@H]5NC6(CCCCC6)[C@@]6(C(=O)Nc7cc(Cl)ccc76)[C@H]5c5cccc(Cl)c5F)CC4)CC3)cc21` (some centres unmarked) [I-138], the DC50 was below 10 nM.

As for `Cn1c(=O)n(C2CCC(=O)NC2=O)c2ccc(N3CCC(N4CCC(NC(=O)[C@@H]5NC6(CCCCC6)[C@@]6(C(=O)Nc7cc(Cl)ccc76)[C@H]5c5cccc(Cl)c5F)CC4)CC3)cc21` (some centres unmarked) [I-139], the DC50 is below 10 nM.

Take `Cn1c(=O)n(C2CCC(=O)NC2=O)c2ccc(CCCO[C@@H]3C[C@H](C(=O)O)N(C(=O)[C@H]4CC[C@H](NC(=O)[C@@H]5NC6(CCCCC6)[C@@]6(C(=O)Nc7cc(Cl)ccc76)[C@H]5c5cccc(Cl)c5F)CC4)C3)cc21` (some centres unmarked) [I-141]: the DC50 is 100 to 1000 nM.

As to `Cn1c(=O)n(C2CCC(=O)NC2=O)c2ccc(N3CCN(C(=O)[C@H]4CC[C@H](NC(=O)[C@@H]5NC6(CCCCC6)[C@@]6(C(=O)Nc7cc(Cl)ccc76)[C@H]5c5cccc(Cl)c5F)CC4)C(C(=O)O)C3)cc21` (some centres unmarked) [I-142], the DC50 is 10 to 100 nM.

In the case of `Cn1c(=O)n(C2CCC(=O)NC2=O)c2ccc(O[C@@H]3C[C@@H](C(=O)O)N(C(=O)[C@H]4CC[C@H](NC(=O)[C@@H]5NC6(CCCCC6)[C@@]6(C(=O)Nc7cc(Cl)ccc76)[C@H]5c5cccc(Cl)c5F)CC4)C3)cc21` (some centres unmarked) [I-143], the DC50 lay in the range of 10 to 100 nM.

On to `Cn1c(=O)n(C2CCC(=O)NC2=O)c2ccc(C3CCN(CCC(=O)N4CCC(NC(=O)[C@@H]5NC6(CCCCC6)[C@@]6(C(=O)Nc7cc(Cl)ccc76)[C@H]5c5cccc(Cl)c5F)CC4)CC3)cc21` (some centres unmarked) [I-146], for which the half-maximal degradation concentration (DC50) was below 10 nM.

With `Cn1c(=O)n(C2CCC(=O)NC2=O)c2ccc(CN3CCN(CCCN4CCC(NC(=O)[C@@H]5NC6(CCCCC6)[C@@]6(C(=O)Nc7cc(Cl)ccc76)[C@H]5c5cccc(Cl)c5F)CC4)CC3)cc21` (some centres unmarked) [I-147], the DC50 is 10 to 100 nM.

For the molecule `Cc1ncsc1-c1ccc(CNC(=O)[C@@H]2C[C@@H](O)CN2C(=O)[C@@H](NC(=O)CCCCC2CCN(C(=O)[C@H]3CC[C@H](NC(=O)[C@@H]4NC5(CCCCC5)[C@@]5(C(=O)Nc6cc(Cl)ccc65)[C@H]4c4cccc(Cl)c4F)CC3)CC2)C(C)(C)C)cc1` [I-148], the DC50 is above 1000 nM.

Regarding `Cc1ncsc1-c1ccc(CNC(=O)[C@@H]2C[C@@H](O)CN2C(=O)[C@@H](NC(=O)C2(F)CC2)C(C)(C)C)c(OCCCCCCCCNC(=O)[C@H]2CC[C@H](NC(=O)[C@@H]3NC4(CCCCC4)[C@@]4(C(=O)Nc5cc(Cl)ccc54)[C@H]3c3cccc(Cl)c3F)CC2)c1` [I-149], the DC50 was above 1000 nM.

Consider `Cn1c(=O)n(C2CCC(=O)NC2=O)c2ccc(CCN3CCN(CCN4CCC(NC(=O)[C@@H]5NC6(CCCCC6)[C@@]6(C(=O)Nc7cc(Cl)ccc76)[C@H]5c5cccc(Cl)c5F)CC4)CC3)cc21` (some centres unmarked) [I-151], for which the DC50 is below 10 nM.

Take `Cn1c(=O)n(C2CCC(=O)NC2=O)c2cccc(C3CCN(CCN4CCC(NC(=O)[C@@H]5NC6(CCCCC6)[C@@]6(C(=O)Nc7cc(Cl)ccc76)[C@H]5c5cccc(Cl)c5F)CC4)CC3)c21` (some centres unmarked) [I-152]: the DC50 is below 10 nM.

`Cn1c(=O)n(C2CCC(=O)NC2=O)c2ccc(-c3ccc(CCN4CCC(NC(=O)[C@@H]5NC6(CCCCC6)[C@@]6(C(=O)Nc7cc(Cl)ccc76)[C@H]5c5cccc(Cl)c5F)CC4)cc3)cc21` (some centres unmarked) [I-154]: the 50% degradation concentration (DC50) is below 10 nM.

For `Cn1c(=O)n(C2CCC(=O)NC2=O)c2ccc(C3CCN([C@H]4CC[C@H](N5CCC(NC(=O)[C@@H]6NC7(CCCCC7)[C@@]7(C(=O)Nc8cc(Cl)ccc87)[C@H]6c6cccc(Cl)c6F)CC5)CC4)CC3)cc21` (some centres unmarked) [I-155], the DC50 was below 10 nM.

Consider `O=C1CCN(c2ccc(CCCCN3CCN(C(=O)[C@H]4CC[C@H](NC(=O)[C@@H]5NC6(CCCCC6)[C@@]6(C(=O)Nc7cc(Cl)ccc76)[C@H]5c5cccc(Cl)c5F)CC4)CC3)cc2)C(=O)N1` [I-156], for which the DC50 is above 1000 nM.

In the case of `Cn1c(=O)n(C2CCC(=O)NC2=O)c2ccc(C3CCN(C(=O)CN4CCC(NC(=O)[C@@H]5NC6(CCC(C)(C)CC6)[C@@]6(C(=O)Nc7cc(Cl)ccc76)[C@H]5c5ccnc(Cl)c5F)CC4)CC3)cc21` (some centres unmarked) [I-160], the DC50 was below 10 nM.

Consider `O=C1CCN(c2cnc3cc(C4CCN(C(=O)CN5CCC(NC(=O)[C@@H]6NC7(CCCCC7)[C@@]7(C(=O)Nc8cc(Cl)ccc87)[C@H]6c6cccc(Cl)c6F)CC5)CC4)ccn23)C(=O)N1` [I-164], for which the DC50 fell in the range of 100 to 1000 nM.

`Cn1c(=O)n(C2CCC(=O)NC2=O)c2ccc(CN3CCN(CCN4CCC(NC(=O)[C@@H]5NC6(CCCCC6)[C@@]6(C(=O)Nc7cc(Cl)ccc76)[C@H]5c5cccc(Cl)c5F)CC4)CC3)cc21` (some centres unmarked) [I-167]: the half-maximal degradation concentration (DC50) fell in the range of 10 to 100 nM.

As to `Cn1c(=O)n(C2CCC(=O)NC2=O)c2ccc(C3CCN(C[C@H]4CC[C@H](NC(=O)[C@@H]5NC6(CCCCC6)[C@@]6(C(=O)Nc7cc(Cl)ccc76)[C@H]5c5cccc(Cl)c5F)CC4)C(C(=O)O)C3)cc21` (some centres unmarked) [I-168], the DC50 was in the range of 10 to 100 nM.

As to `O=C1CCN(c2cnc3cc(N4CCN(CCN5CCC(NC(=O)[C@@H]6NC7(CCCCC7)[C@@]7(C(=O)Nc8cc(Cl)ccc87)[C@H]6c6cccc(Cl)c6F)CC5)CC4)ccn23)C(=O)N1` [I-169], the DC50 was in the range of 10 to 100 nM.

In the case of `Cn1c(=O)n(C2CCC(=O)NC2=O)c2ccc(C3CCN(Cc4ccc(NC(=O)[C@@H]5NC6(CCCCC6)[C@@]6(C(=O)Nc7cc(Cl)ccc76)[C@H]5c5cccc(Cl)c5F)cc4C(=O)O)CC3)cc21` (some centres unmarked) [I-171], the DC50 lay in the range of 10 to 100 nM.

As to `Cn1c(=O)n(C2CCC(=O)NC2=O)c2ccc(C3(O)CCN(C[C@H]4CC[C@H](NC(=O)[C@@H]5NC6(CCCCC6)[C@@]6(C(=O)Nc7cc(Cl)ccc76)[C@H]5c5cccc(Cl)c5F)CC4)CC3)cc21` (some centres unmarked) [I-194], the DC50 was below 10 nM.

For `Cn1c(=O)n(C2CCC(=O)NC2=O)c2ccc(CN3CCN(C[C@H]4CC[C@H](NC(=O)[C@@H]5NC6(CCCCC6)[C@@]6(C(=O)Nc7cc(Cl)ccc76)[C@H]5c5cccc(Cl)c5F)CC4)C(C(=O)O)C3)cc21` (some centres unmarked) [I-196], the DC50 was 10 to 100 nM.

With `Cn1c(=O)n(C2CCC(=O)NC2=O)c2ccc(CCN3CCN(C[C@H]4CC[C@H](NC(=O)[C@@H]5NC6(CCCCC6)[C@@]6(C(=O)Nc7cc(Cl)ccc76)[C@H]5c5cccc(Cl)c5F)CC4)C(C(=O)O)C3)cc21` (some centres unmarked) [I-197], the DC50 is below 10 nM.
